In ChEMBL document CHEMBL1909046, “DrugMatrix in vitro pharmacology data”:

What was measured:
Progesterone receptor = target: T1, Progesterone receptor (Bos taurus, UniProt Q690N0); experiment: DRUGMATRIX: Progesterone radioligand binding (ligand: [3H] R-5020); assay type: tissue-based, Uterus; details: Not Active = under 50% inhibition at 10 µM
T1 sequence (Q690N0 whole entry): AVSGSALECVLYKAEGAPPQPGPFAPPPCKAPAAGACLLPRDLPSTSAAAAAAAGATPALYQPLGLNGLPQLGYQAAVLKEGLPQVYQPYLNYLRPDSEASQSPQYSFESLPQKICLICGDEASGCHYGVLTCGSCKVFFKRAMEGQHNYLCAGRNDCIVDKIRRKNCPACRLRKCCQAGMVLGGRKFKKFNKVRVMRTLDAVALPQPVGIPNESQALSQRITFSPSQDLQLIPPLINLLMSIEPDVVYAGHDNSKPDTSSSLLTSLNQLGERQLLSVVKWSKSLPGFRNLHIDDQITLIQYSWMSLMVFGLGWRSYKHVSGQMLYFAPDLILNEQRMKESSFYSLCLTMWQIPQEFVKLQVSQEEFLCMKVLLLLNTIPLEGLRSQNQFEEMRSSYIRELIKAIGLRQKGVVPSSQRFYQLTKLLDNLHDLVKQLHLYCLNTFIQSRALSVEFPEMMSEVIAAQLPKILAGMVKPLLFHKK

[1] = target: Delta-type opioid receptor (Homo sapiens, UniProt P41143); assay type: cell membranes, HEK293, Membrane; details: hek293; further: in other assays of this panel Not Active means under 50% inhibition at 10 µM
[2] = target: T2, Muscarinic acetylcholine receptor M2 (Homo sapiens, UniProt P08172); assay type: cell membranes, CHO-K1, Membrane; details: cho-k1; further: in other assays of this panel Not Active means under 50% inhibition at 10 µM
T2 sequence (P08172 whole entry): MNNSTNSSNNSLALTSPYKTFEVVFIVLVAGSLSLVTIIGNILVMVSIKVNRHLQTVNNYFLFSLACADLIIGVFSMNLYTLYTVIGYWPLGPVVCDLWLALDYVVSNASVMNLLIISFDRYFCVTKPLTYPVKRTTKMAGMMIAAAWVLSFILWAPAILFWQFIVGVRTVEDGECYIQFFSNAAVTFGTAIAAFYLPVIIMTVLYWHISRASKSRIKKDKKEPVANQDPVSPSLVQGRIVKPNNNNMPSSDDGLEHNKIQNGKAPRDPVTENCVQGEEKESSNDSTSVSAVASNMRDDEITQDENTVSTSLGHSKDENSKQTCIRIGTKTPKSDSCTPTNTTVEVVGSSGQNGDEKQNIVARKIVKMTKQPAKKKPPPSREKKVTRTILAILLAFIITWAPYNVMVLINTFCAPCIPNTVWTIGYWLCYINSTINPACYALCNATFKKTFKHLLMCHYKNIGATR

[3] = target: Protein kinase C alpha type (Homo sapiens, UniProt P17252); assay type: cell-based; details: sf9;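 further: inhibition of PKCalpha kinase activity measured in an enzyme assay with histone as the phosphorylation substrate; in other assays of this panel Not Active means under 50% inhibition at 10 µM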
[4] = target: T3, Polyunsaturated fatty acid lipoxygenase ALOX15 (Oryctolagus cuniculus, UniProt P12530); experiment: biochemical; assay type: tissue-based, Reticulocytes; details: reticulocytes;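 further: inhibition of 15-lipoxygenase enzyme activity measured with linoleic acid as the substrate; in other assays of this panel Not Active means under 50% inhibition at 10 µM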
T3 sequence (P12530 whole entry): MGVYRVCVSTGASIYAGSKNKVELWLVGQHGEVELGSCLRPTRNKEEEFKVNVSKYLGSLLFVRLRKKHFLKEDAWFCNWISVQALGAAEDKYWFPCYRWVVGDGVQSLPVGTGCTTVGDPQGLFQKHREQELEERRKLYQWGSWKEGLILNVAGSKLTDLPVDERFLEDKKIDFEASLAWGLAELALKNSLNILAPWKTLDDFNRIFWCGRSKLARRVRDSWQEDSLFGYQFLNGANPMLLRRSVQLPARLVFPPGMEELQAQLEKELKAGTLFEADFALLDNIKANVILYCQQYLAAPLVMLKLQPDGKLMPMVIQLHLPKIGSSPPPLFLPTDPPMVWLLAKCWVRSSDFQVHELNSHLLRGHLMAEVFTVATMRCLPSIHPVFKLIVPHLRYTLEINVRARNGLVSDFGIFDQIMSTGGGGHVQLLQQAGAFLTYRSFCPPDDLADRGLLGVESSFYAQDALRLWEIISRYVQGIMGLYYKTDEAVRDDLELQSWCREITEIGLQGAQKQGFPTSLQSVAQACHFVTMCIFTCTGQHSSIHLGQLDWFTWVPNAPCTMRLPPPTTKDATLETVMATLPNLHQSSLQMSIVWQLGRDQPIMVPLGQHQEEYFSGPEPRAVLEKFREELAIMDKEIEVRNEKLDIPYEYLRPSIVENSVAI

Cytochrome P450 2A6 = target: T4, Cytochrome P450 2A6 (Homo sapiens, UniProt P11509); details: bti-tn-5b1-4; further: in other assays of this panel Not Active means under 50% inhibition at 10 µM
T4 sequence (P11509 whole entry): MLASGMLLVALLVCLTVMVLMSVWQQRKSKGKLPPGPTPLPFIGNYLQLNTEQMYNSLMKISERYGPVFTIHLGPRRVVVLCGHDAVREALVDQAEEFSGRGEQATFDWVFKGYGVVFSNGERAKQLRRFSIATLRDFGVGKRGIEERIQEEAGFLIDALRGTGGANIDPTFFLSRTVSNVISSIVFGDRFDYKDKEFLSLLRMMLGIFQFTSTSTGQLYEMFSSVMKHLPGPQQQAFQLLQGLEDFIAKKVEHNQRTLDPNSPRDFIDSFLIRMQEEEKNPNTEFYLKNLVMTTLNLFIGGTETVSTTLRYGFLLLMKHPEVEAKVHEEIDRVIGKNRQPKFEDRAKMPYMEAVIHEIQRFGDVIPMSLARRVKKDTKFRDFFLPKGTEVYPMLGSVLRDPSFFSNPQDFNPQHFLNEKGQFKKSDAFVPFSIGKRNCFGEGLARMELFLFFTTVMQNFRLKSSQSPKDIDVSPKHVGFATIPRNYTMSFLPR

Sequence of Delta-type opioid receptor (P41143 whole entry): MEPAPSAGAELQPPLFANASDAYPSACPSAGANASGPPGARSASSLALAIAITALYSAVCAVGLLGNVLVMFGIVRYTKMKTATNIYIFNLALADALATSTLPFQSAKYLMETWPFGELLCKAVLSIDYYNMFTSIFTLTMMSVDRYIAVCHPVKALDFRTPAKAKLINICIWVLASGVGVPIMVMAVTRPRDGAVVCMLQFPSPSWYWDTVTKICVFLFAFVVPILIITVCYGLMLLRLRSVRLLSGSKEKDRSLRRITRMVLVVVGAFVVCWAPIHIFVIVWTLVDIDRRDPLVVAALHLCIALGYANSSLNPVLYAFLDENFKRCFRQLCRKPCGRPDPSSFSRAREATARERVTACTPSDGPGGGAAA

Cc1ccc(C)c(OCCCC(C)(C)C(=O)O)c1 [GEMFIBROZIL]
Not Active: IC50 (Progesterone receptor) | IC50 [1] | IC50 [2] | IC50 [3] | IC50 [4] | IC50 (Cytochrome P450 2A6) | Ki (Cytochrome P450 2A6)

NNCCc1ccccc1 [PHENELZINE]
Not Active: IC50 (Progesterone receptor) | IC50 [1] | IC50 [2] | IC50 [3] | IC50 [4] | IC50 (Cytochrome P450 2A6) | Ki (Cytochrome P450 2A6)

O=C(O)CCNC(=O)c1ccc(/N=N/c2ccc(O)c(C(=O)O)c2)cc1 [BALSALAZIDE]
Not Active: IC50 (Progesterone receptor) | IC50 [1] | IC50 [2] | IC50 [3] | IC50 [4] | IC50 (Cytochrome P450 2A6) | Ki (Cytochrome P450 2A6)

C[S+](C)[O-] [DIMETHYL SULFOXIDE]
Not Active: IC50 (Progesterone receptor) | IC50 [1] | IC50 [2] | IC50 [3] | IC50 [4] | IC50 (Cytochrome P450 2A6) | Ki (Cytochrome P450 2A6)

O=C(c1ccccc1F)N1CCC(Cc2ccccc2)CC1
Not Active: IC50 (Progesterone receptor) | IC50 [1] | IC50 [2] | IC50 [3] | IC50 [4] | IC50 (Cytochrome P450 2A6) | Ki (Cytochrome P450 2A6)

COc1cc(OC)c(C(=O)CCCN2CCCC2)c(OC)c1 [BUFLOMEDIL]
Not Active: IC50 (Progesterone receptor) | IC50 [1] | IC50 [2] | IC50 [3] | IC50 [4] | IC50 (Cytochrome P450 2A6) | Ki (Cytochrome P450 2A6)

COC(=O)Nc1nc2cc(C(=O)c3ccc(F)cc3)ccc2[nH]1 [FLUBENDAZOLE]
Not Active: IC50 (Progesterone receptor) | IC50 [1] | IC50 [2] | IC50 [3] | IC50 [4] | IC50 (Cytochrome P450 2A6) | Ki (Cytochrome P450 2A6)

COc1ccnc(C[S+]([O-])c2nc3ccc(OC(F)F)cc3[nH]2)c1OC (centres undefined) [PANTOPRAZOLE]
Not Active: IC50 (Progesterone receptor) | IC50 [1] | IC50 [2] | IC50 [3] | IC50 [4] | IC50 (Cytochrome P450 2A6) | Ki (Cytochrome P450 2A6)

CCc1ccc(CCOc2ccc(CC3SC(=O)NC3=O)cc2)nc1 (centres undefined) [PIOGLITAZONE]
Not Active: IC50 (Progesterone receptor) | IC50 [1] | IC50 [2] | IC50 [3] | IC50 [4] | IC50 (Cytochrome P450 2A6) | Ki (Cytochrome P450 2A6)

CC[C@H]1[C@@H]2C[C@H]3[C@@H]4N(C)c5ccccc5[C@]45C[C@@H]([C@@H]2[C@H]5O)N3[C@@H]1O [AJMALINE]
Not Active: IC50 (Progesterone receptor) | IC50 [1] | IC50 [2] | IC50 [3] | IC50 [4] | IC50 (Cytochrome P450 2A6) | Ki (Cytochrome P450 2A6)

CNC1=Nc2ccc(Cl)cc2C(c2ccccc2)=[N+]([O-])C1 [CHLORDIAZEPOXIDE]
Not Active: IC50 (Progesterone receptor) | IC50 [1] | IC50 [2] | IC50 [3] | IC50 [4] | IC50 (Cytochrome P450 2A6) | Ki (Cytochrome P450 2A6)

C[C@@H]1O[C@@H](O[C@H]2C[C@@H](O)[C@]3(CO)[C@H]4[C@H](O)C[C@]5(C)[C@@H](C6=CC(=O)OC6)CC[C@]5(O)[C@@H]4CC[C@]3(O)C2)[C@H](O)[C@H](O)[C@H]1O [OUABAIN]
Not Active: IC50 (Progesterone receptor) | IC50 [1] | IC50 [2] | IC50 [3] | IC50 [4] | IC50 (Cytochrome P450 2A6) | Ki (Cytochrome P450 2A6)
